Measured values reported in US12350247B2, “Use of APE1/Ref-1 inhibitors for treatment of retinal diseases” (Indiana University Research and Technology Corporation, priority 2017, dated 2025).
Where two headings read alike, the source gives them in different places.

Experiments:
Pa03C [1] = assay: Monolayer cytotoxicity under hypoxia (alamarBlue); format: cell-based; details: N = 3, read-out: LC50 (the source's name)
From the text: (§1) To determine target selectivity, analogs of APX3330, APX2009 and APX2014, and an analog of SLC-0111, FC12-531A, were used.

Panc10.05 [2] = assay: Monolayer cytotoxicity under hypoxia (alamarBlue); format: cell-based
From the text: as §1

[3] = tested on: patient-derived PDAC cell lines (10.05, Pa02C, Pa03C); assay: SLC-0111 efficacy in PDAC cell lines under hypoxic conditions; format: cell-based; details: Homo sapiens, all three patient-derived PDAC cell lines, 0.2% O2, read-out: LC50 during hypoxia exposure
Description: The efficacy of SLC-0111, a CA9 inhibitor that has recently completed a Phase I clinical trial, was evaluated in different PDAC cell lines under hypoxic conditions for comparison.

10.05 cells = assay: Intracellular pH assay (pHrodo Red AM) in hypoxic 10.05 cells; format: cell-based, human; details: 0.2% O2 48 hrs; up to 50 μM APX3330, 100 μM SLC-0111; 8 APX2009, 5 μM APX2014
From the text: Therefore, the APX3330 analogs, APX2009 and APX2014, were used to determine whether APE1/Ref-1 redox inhibition alone can shift intracellular pH in hypoxic PDAC cells given a sufficiently potent inhibitor.

CAFs (CAF19 cells) = assay: 3D spheroid co-culture, CAF signal (green channel); details: read-out: LC50, 3D Cultures, CAFs
Panc10.05 [4] = assay: 3D tumor spheroid culture growth (fluorescence intensity); details: read-out: LC50; 3D Cultures, Tumor Alone, Panc10.05, D12 curves
Pa03C [5] = assay: as above; details: read-out: LC50; 3D Cultures, Tumor Alone, Pa03C, D12 curves
PDAC cells and CAFs = assay: 3D co-culture cytotoxicity, Ref-1 inhibition with docetaxel or trametinib; format: cell-based
From the text: Standard 3D co-culture assays as prepared in Arpin, C. et al., Mol Cancer Ther 15, 794-805 (2016); Logsdon, P. et al., Mol Cancer Ther 15, 2722-2732 (2016); Cardoso, A. et al., PloS one 7, e4742 (2012); and Kelley, M. et al., The Journal of pharmacology and experimental therapeutics 359, 300-309 (2016) were used to evaluate the cytotoxicity of the combinations on tumor cells as well as cancer-associated fibroblasts.

[6] = tested on: patient-derived Pa03C tumors with CAFs; assay: Flank co-culture model of PDAC, APX3330 and Ruxolitinib; format: in vivo, mice; details: treatment alone, 50 mg/kg, day 28
Description: Treatment of the implanted tumors started on day 11 post implant. Particularly, the co-cultures implanted included 2.5×10^6 tumor cells +/−5 ×10^6 CAFs, providing a 1:2 ratio of tumor cell to CAF. […] The mice were then administered either 50 mg/kg APX3330 BID in 4% Cr:EtOH, 50 mg/kg Rux SID pm in 4% Cr:EtOH, or combinations of the agents. Treatment schedule consisted of treating for 5 days and then giving 2 days off treatment until the tumors reached an average size of 2000 mm^3.

CA9 [7] = assay: Hypoxia-induced CA9 mRNA and protein levels in 10.05 monolayer cells; format: cell-based, human; details: 10.05 cells, 0.2% O2 for 24 hours
Description: (§2) Western Blot Analysis: Immunoblotting was performed using antibodies for APE1/Ref-1 (Novus Biologicals; Littleton, CO), CA9 (Santa Cruz; Dallas, Texas), Actin (NeoMarkers; Fremont, CA), and Vinculin (Sigma; St. Louis, MO).
The comparative Ct method was used to quantitate mRNA levels using RPLP0 and B2M as reference genes. The primers for CA9, RPLP0, and B2M are commercially available (Applied Biosystems). Experiments were performed in triplicate for each sample.

CA9 [8] = assay: CA9 protein expression in 10.05 3D tumor spheroids (Western blot); format: cell-based, human; details: 3D spheroid cultures, 12 days, treated on days 4 and 8
Description: as §2
The effect of APE1/Ref-1 redox inhibition on CA9 protein expression was also measured in 3D tumor spheroids.

[9] = tested on: Pa03C and Panc10.05 tumor cells; assay: 3D spheroid / co-culture model of pancreatic cancer (both patient lines); details: for single agent efficacy on 3D spheroid growth: treated on days 4 and 8, FIG. 17
Description: Pa03C cells were plated into 3D cultures alone or with CAF19 cells.
Pa03C and Panc10.05 tumor cells were grown in 3D cultures in the presence of CAFs. Spheroids were treated with either single agents, vehicle (DMSO) or combination of targeted agents on days 4 and 8 (black arrows), and the intensity of tumor (red) and CAF (green) were quantified as described in Example 7 every 3-4 days in culture.

[10] = tested on: mouse colon cell line MC-38; assay: Alamar blue cytotoxicity assay; format: cell-based; details: single agent, 72 hours
Description: MC-38 cells (Yunhua Liu) were seeded in a 96-well tissue culture plate at 2000 cells/well in DMEM+10% FBS and grown overnight at 37° C., 5% CO2. […] Cells were incubated for 72 hours at 37° C., 5% CO2. Media was exchanged with DMEM+5% FBS+10% Alamar blue fluorescent cell viability indicator (Invitrogen™) and incubated 4 hours at 37° C., 5% CO2 and then read on a fluorescent reader (Synergy™ H4 BioTek). […] Data shown is the average of 3 separate cytotoxicity assays; each assay normalized to media only control.

[11] = tested on: human carcinoma colon cell line HCT-116; assay: Alamar blue cytotoxicity combination assay (CalcuSyn); format: cell-based; details: only one APX2014 dosage (12.5 uM), spiked with 75 uM CPI-613
Description: HTC-116 (Yunhua Liu) was seeded in a 96-well tissue culture plate at 2000 cells/well in DMEM+10% FBS and grown overnight at 37° C., 5% CO2. Drug Media DMEM+5% FBS was added at dosages of APX3330 (Apexian) in a 5-point spread from 75 uM to 6.3 uM and spiked with CPI-613 (Apexbio Technology) at 75 uM, or 50 uM, or alone for single agent. Cells were incubated for 72 hours at 37° C., 5% CO2. Media was exchanged with DMEM+5% FBS+10% Alamar blue fluorescent cell viability indicator (INVITROGEN™) and incubated 4 hours at 37° C., 5% CO2 and then read on a fluorescent reader (SYNERGY™ H4 BioTek). […] depicts Chou-Talalay Index (CI) of dose combinations (CalcuSyn). FIG. 32E depicts synergistic drug combinations (CalcuSyn) of APX3330 spiked with 50 uM CPI-613 or 75 uM CPI-613. […] Data shown is the average of 3 separate cytotoxicity assays; each assay normalized to media only control.
HTC-116 (Yunhua Liu) was seeded in a 96-well tissue culture plate at 2000 cells/well in DMEM+10% FBS and grown overnight at 37° C., 5% CO2. Drug Media DMEM+5% FBS was added at dosages of APX3330 (Apexian) from 100 uM to 0.4 uM in a 10-point spread and spiked with CPI-613 (Apexbio Technology) at 100 uM, or 75 uM, or alone for single agent. Cells were incubated for 72 hours at 37° C., 5% CO2. Media was exchanged with DMEM+5% FBS+10% Alamar blue fluorescent cell viability indicator (INVITROGEN™) and incubated 4 hours at 37° C., 5% CO2 and then read on a fluorescent reader (SYNERGY™ H4 BioTek). […] FIG. 33D depicts Chou-Talalay Index (CI) of dose combinations (CalcuSyn). FIG. 33E depicts synergistic drug combinations (CalcuSyn) of APX3330 spiked with 100 uM CPI-613 or 75 uM CPI-613. […] Data shown is the average of 3 separate cytotoxicity assays; each assay normalized to media only control.
HTC-116 (Yunhua Liu) was seeded in a 96-well tissue culture plate at 2000 cells/well in DMEM+10% FBS and grown overnight at 37° C., 5% CO2. Drug Media DMEM+5% FBS was added at dosages of APX2014 (Apexian) in a 5-point spread from 25 uM to 1.6 uM and spiked with CPI-613 (Apexbio Technology) at 75 uM, or 50 uM, or alone for single agent. Cells were incubated for 72 hours at 37° C., 5% CO2. Media was exchanged with DMEM+5% FBS+10% Alamar blue fluorescent cell viability indicator (INVITROGEN™) and incubated 4 hours at 37° C., 5% CO2 and then read on a fluorescent reader (SYNERGY™ H4 BioTek). […] FIG. 34D depicts Chou-Talalay Index (CI) of dose combinations (CalcuSyn). FIG. 34E depicts synergistic drug combinations (CalcuSyn) of APX2014 spiked with 50 uM CPI-613 or 75 uM CPI-613. Drug combination synergy could not be ascertained at APX2014 dosages when spiked with 50 uM CPI-613. […] Data shown is the average of 3 separate cytotoxicity assays; each assay normalized to media only control.
HTC-116 (Yunhua Liu) was seeded in a 96-well tissue culture plate at 2000 cells/well in DMEM+10% FBS and grown overnight at 37° C., 5% CO2. Drug Media DMEM+5% FBS was added at dosages of APX3330 (Apexian) from 100 uM to 0.4 uM in a 10-point spread and spiked with CB-839 (Sigma-Aldrich) at 1000 nM, or 500 nM, or alone for single agent. Cells were incubated for 72 hours at 37° C., 5% CO2. Media was exchanged with DMEM+5% FBS+10% Alamar blue fluorescent cell viability indicator (INVITROGEN™) and incubated 4 hours at 37° C., 5% CO2 and then read on a fluorescent reader (SYNERGY™ H4 BioTek). FIG. 35A depicts APX3330 and CB-839 single agent effects. FIG. 35B depicts APX3330 and CB-839 synergistic combo effects. […] FIG. 35E depicts synergistic drug combinations (CalcuSyn) of APX3330 spiked with 1000 nM CB-839 or 500 nM CB-839 (5-pt only). […] Data shown is the average of 3 separate cytotoxicity assays; each assay normalized to media only control.

[12] = tested on: bladder cell line BLCAb001; assay: 96-hour viability assay, APX2014 with cisplatin; format: cell-based; details: APX2014 doses of 6 mM-3 mM in combination with cisplatin
Description: The BLCAb001 (cisplatin resistant) cell line was treated with increasing concentrations of APX2014 and cisplatin as single agents and in combination and assayed in a 96-hour viability assay. The concentrations of APX2014 range from 6 mM-0.38 mM in combination with the indicated cisplatin doses (FIG. 36A). […] The concentrations of Cisplatin as a single agent range from 2.5 mM-0.04 mM (FIG. 36B).

Panc10.05 [13] = tested on: Panc10.05
Pa03C [14] = tested on: Pa03C
[15] = Homo sapiens, Panc1005, Panc10.05, N = 3, read-out: LC50 (the source's name)
[16] = co-culture with Pa03C, D12 curves
[17] = co-culture with Panc10.05, D12 curves

SMILES	CC50 (Pa03C [1]; Homo sapiens)	CC50 (Panc10.05 [2]; [15])	effect on intracellular pH as single agent (10.05 cells)	CC50 (CAFs (CAF19 cells); [16])	CC50 (CAFs (CAF19 cells); [17])	CC50 (Panc10.05 [4])	CC50 (Pa03C [5])	cytotoxicity in combination with Ref-1 inhibition (PDAC cells and CAFs)	fold less required vs. APX3330 to decrease hypoxia-induced CA9 mRNA and protein levels (CA9 [7])	fold less of the concentration compared to APX3330 to attenuate CA9 expression (CA9 [8])	single agent efficacy on 3D spheroid growth [9]	also measured
NS(=O)(=O)c1ccc(NC(=O)Nc2ccc(F)cc2)cc1 [SLC-0111, reference compound]	90.8 µM	63.9 µM	did not affect	97 µM	98.2 µM	64 µM	51.9 µM					CC50 [3]: < 100 µM
CC(=O)Nc1cccc(-n2c(=O)n(C3CC3)c(=O)c3c(Nc4ccc(I)cc4F)n(C)c(=O)c(C)c32)c1 [Trametinib]								more effective than either agent alone				
N#CC[C@H](C1CCCC1)n1cc(-c2ncnc3[nH]ccc23)cn1 [Rux, Ruxolitinib, reference compound]												average tumor size [6]: 1750 mm³
CCC/C(=C\C1=C(OC)C(=O)c2ccccc2C1=O)C(=O)N(CC)CC [APX2009, (2E)-2-[(3-methoxy-1,4-dioxo-1,4-dihydronaphthalen-2-yl)methylidene]-N,N-diethylpentanamide]	6.7 µM	4.9 µM	decreased intracellular pH	13.1 µM	14.1 µM	9.4 µM	6.9 µM		10 fold	10 fold	as effective as APX3330	tumor killing in combination with napabucasin ([9]; 3D spheroid model (tumor and CAF)): synergistic tumor killing effect
CCC/C(=C\C1=C(OC)C(=O)c2ccccc2C1=O)C(=O)NOC [APX2014, (2E)-2-[(3-methoxy-1,4-dioxo-1,4-dihydronapthalen-2-yl)methylidene]-N-methoxypentanamide]			decreased intracellular pH						10 fold	10 fold	as effective as APX3330	CC50 (Pa03C [1]): 3.5 µM; CC50 (Panc10.05 [2]; Panc10.05, N = 3, read-out: LC50 (the source's name)): 1.3 µM; EC10 [10]: 2.0 µM; EC30 [10]: 3.0 µM; drug combination synergy (Chou-Talalay, CalcuSyn) [11]: Synergy was observed; combination index [12]: > 1.0; CC50 (Panc10.05 [13]): 0.3 µM; CC50 (Pa03C [14]): 1.1 µM
CC(=O)O[C@@]12CO[C@@H]1C[C@H](O)[C@@]1(C)C(=O)[C@H](O)C3=C(C)[C@@H](OC(=O)[C@H](O)[C@@H](NC(=O)OC(C)(C)C)c4ccccc4)C[C@@](O)([C@@H](OC(=O)c4ccccc4)[C@H]21)C3(C)C [Docetaxel]								more effective than either agent alone				
